Test results from ChEMBL document CHEMBL4613212, “Insights of synthetic analogues of anti-leprosy agents” (Bioorg Med Chem, 2019).
Converted amounts (≈) assume the structure as drawn. The source made the active and inactive calls. No cut-off for these calls is given here.

Tests used:
Type in all cases: functional
[1] = system: Enterococcus faecalis; experiment: Antimicrobial activity against Enterococcus faecalis ATCC 29212 by broth microdilution assay
[2] = system: Staphylococcus aureus; experiment: Antimicrobial activity against Staphylococcus aureus ATCC 25923 by broth microdilution assay
[3] = system: Enterococcus faecalis; experiment: Antimicrobial activity against Enterococcus faecalis ATCC 51922 by broth microdilution assay
[4] = system: Listeria monocytogenes; experiment: Antimicrobial activity against Listeria monocytogenes ATCC 1911 by broth microdilution assay
[5] = system: Klebsiella pneumoniae; experiment: Antimicrobial activity against Klebsiella pneumoniae 700603 by broth microdilution assay
[6] = system: Pseudomonas aeruginosa; experiment: Antimicrobial activity against Pseudomonas aeruginosa ATCC 27853 by broth microdilution assay
[7] = system: Escherichia coli; experiment: Antimicrobial activity against Escherichia coli ATCC 35218 by broth microdilution assay
[8] = system: Escherichia coli; experiment: Antimicrobial activity against Escherichia coli ATCC 25922 by broth microdilution assay
[9] = system: Mycobacterium tuberculosis; experiment: Antitubercular activity against Mycobacterium tuberculosis H37Rv ATCC 27294 incubated for 7 days by microplate alamar blue assay; settings: H37Rv ATCC 27294, 168 h
[10] = system: Mycobacterium leprae; experiment: Anti-leprotic activity against Mycobacterium leprae assessed as maximum bactericidal dilutions
[11] = system: Mycobacterium tuberculosis; experiment: Antitubercular activity against Mycobacterium tuberculosis H37Rv ATCC 27294 assessed as growth inhibition at 6.25 ug/ml by microplate alamar blue assay relative to control
[12] = system: Mycobacterium tuberculosis; experiment: Antitubercular activity against Mycobacterium tuberculosis H37Rv ATCC 27294 assessed as inhibition of [3H]-thymidine incorporation relative to control
[13] = system: Mycobacterium tuberculosis; experiment: Antitubercular activity against Mycobacterium tuberculosis infected in mouse assessed as reduction in microbial load at 2 to 3 mg ip, pretreated for 48 to 72 hrs followed by microbial infection and subsequent compound dosing at 48 to 72 hrs post-infection measured 24 to 32 days post-infection relative to control; parameters: scale not given: the % may be the effect or the level left

| SMILES | MIC [1] [µg/mL] | MIC [2] [µg/mL] | MIC [3] [µg/mL] | MIC [4] [µg/mL] | MIC [5] [µg/mL] | MIC [6] [µg/mL] | MIC [7] [µg/mL] | MIC [8] [µg/mL] | fold change (FC) [10] | other results |
| --- | --- | --- | --- | --- | --- | --- | --- | --- | --- | --- |
| Oc1ccc(/C=N/NC(=S)Nc2ccc(C(F)(F)F)cc2)cc1 | 400 (≈ 1180 µM) | 400 (≈ 1180 µM) | 400 (≈ 1180 µM) | 400 (≈ 1180 µM) | 400 (≈ 1180 µM) | 400 (≈ 1180 µM) | 400 (≈ 1180 µM) | 400 (≈ 1180 µM) |  | MIC [9]: 400 µg/mL (≈ 1180 µM) |
| CCCCCCCC(CCC1CCCC1)C(=O)O (stereo unspecified) |  |  |  |  |  |  |  |  | 170 |  |
| FC(F)(F)c1ccc(/C=N/NC(=S)Nc2ccc(C(F)(F)F)cc2)cc1 | 100 (≈ 256 µM) | 400 (≈ 1020 µM) | 400 (≈ 1020 µM) | 800 (≈ 2040 µM) | 400 (≈ 1020 µM) | 400 (≈ 1020 µM) | 400 (≈ 1020 µM) | 400 (≈ 1020 µM) |  | MIC [9]: 200 µg/mL (≈ 511 µM) |
| CCCCCCCCC(C(=O)O)C1CCCCC1 (stereo unspecified) |  |  |  |  |  |  |  |  | 110 |  |
| CCCCCCCCC(CCC1CCCCC1)C(=O)O (stereo unspecified) |  |  |  |  |  |  |  |  | 220 |  |
| c1coc(-c2ncnc3c2ncn3CC2CCCCC2)c1 |  |  |  |  |  |  |  |  |  | inhibition at 6.25 µg/mL [11]: 22%; inhibition (INH) [12]: 60% |
| C=CCn1cnc2c(-c3ccco3)ncnc21 |  |  |  |  |  |  |  |  |  | inhibition at 6.25 µg/mL [11]: 7%; inhibition (INH) [12]: 11% |
| c1ccc(-c2ncnc3c2ncn3C2CCOCC2)cc1 |  |  |  |  |  |  |  |  |  | inhibition at 6.25 µg/mL [11]: 3%; inhibition (INH) [12]: <10% |
| OCCOCCOCCOCCOCCOCCOc1c2cc(-c3ccccc3)cc1Cc1cc(-c3ccccc3)cc(c1OCCOCCOCCOCCOCCOCCO)Cc1cc(-c3ccccc3)cc(c1OCCOCCOCCOCCOCCOCCO)Cc1cc(-c3ccccc3)cc(c1OCCOCCOCCOCCOCCOCCO)Cc1cc(-c3ccccc3)cc(c1OCCOCCOCCOCCOCCOCCO)Cc1cc(-c3ccccc3)cc(c1OCCOCCOCCOCCOCCOCCO)Cc1cc(-c3ccccc3)cc(c1OCCOCCOCCOCCOCCOCCO)C2 |  |  |  |  |  |  |  |  |  | Activity [13]: 20 - 50% |
| CCCCCCCCCCC(C(=O)O)C1CCCC1 (stereo unspecified) |  |  |  |  |  |  |  |  | 143 |  |
| c1ccc(CCn2cnc3c(-c4ccco4)ncnc32)cc1 |  |  |  |  |  |  |  |  |  | inhibition at 6.25 µg/mL [11]: 26%; inhibition (INH) [12]: 53% |
| FC(F)(F)c1ccc(NC(=S)N/N=C/c2ccc(Cl)cc2)cc1 | 400 (≈ 1120 µM) | 400 (≈ 1120 µM) | 400 (≈ 1120 µM) | 800 (≈ 2240 µM) | 400 (≈ 1120 µM) | 400 (≈ 1120 µM) | 400 (≈ 1120 µM) | 400 (≈ 1120 µM) |  | MIC [9]: 400 µg/mL (≈ 1120 µM) |
| CCCCCCCC(CCC1CCCCC1)C(=O)O (stereo unspecified) |  |  |  |  |  |  |  |  | 160 |  |
| CCCCCCCCCC(C(=O)O)C1CCCC1 (stereo unspecified) |  |  |  |  |  |  |  |  | 111 |  |
| Cc1ccc(/C=N/NC(=S)Nc2ccc(C(F)(F)F)cc2)cc1 | 400 (≈ 1190 µM) | 400 (≈ 1190 µM) | 400 (≈ 1190 µM) | 800 (≈ 2370 µM) | 400 (≈ 1190 µM) | 400 (≈ 1190 µM) | 800 (≈ 2370 µM) | 400 (≈ 1190 µM) |  | MIC [9]: 200 µg/mL (≈ 593 µM) |
| CC(C)c1ccc(/C=N/NC(=S)Nc2ccc(C(F)(F)F)cc2)cc1 | 400 (≈ 1090 µM) | 400 (≈ 1090 µM) | 400 (≈ 1090 µM) | 400 (≈ 1090 µM) | 400 (≈ 1090 µM) | 400 (≈ 1090 µM) | 800 (≈ 2190 µM) | 400 (≈ 1090 µM) |  | MIC [9]: 200 µg/mL (≈ 547 µM) |
| FC(F)(F)c1ccc(NC(=S)N/N=C/c2ccccc2)cc1 | 200 (≈ 619 µM) | 400 (≈ 1240 µM) | 400 (≈ 1240 µM) | 400 (≈ 1240 µM) | 400 (≈ 1240 µM) | 400 (≈ 1240 µM) | 400 (≈ 1240 µM) | 400 (≈ 1240 µM) |  | MIC [9]: 200 µg/mL (≈ 619 µM) |
| CC(C)(C)c1cc2c(O)c(c1)Cc1cc(C(C)(C)C)cc(c1O)Cc1cc(C(C)(C)C)cc(c1O)Cc1cc(C(C)(C)C)cc(c1O)C2 |  |  |  |  |  |  |  |  |  | Activity [13]: inactive |
| O=S(=O)(O)c1cc2c(O)c(c1)Cc1cc(S(=O)(=O)O)cc(c1O)Cc1cc(S(=O)(=O)O)cc(c1O)Cc1cc(S(=O)(=O)O)cc(c1O)Cc1cc(S(=O)(=O)O)cc(c1O)Cc1cc(S(=O)(=O)O)cc(c1O)Cc1cc(S(=O)(=O)O)cc(c1O)Cc1cc(S(=O)(=O)O)cc(c1O)C2 |  |  |  |  |  |  |  |  |  | Activity [13]: 50 - 80% |
| CC(C)(C)c1cc2c(OCCOCCOCCOCCOCCOCCOCCOCCOCCOCCOCCOCCO)c(c1)Cc1cc(C(C)(C)C)cc(c1OCCOCCOCCOCCOCCOCCOCCOCCOCCOCCOCCOCCO)Cc1cc(C(C)(C)C)cc(c1OCCOCCOCCOCCOCCOCCOCCOCCOCCOCCOCCOCCO)Cc1cc(C(C)(C)C)cc(c1OCCOCCOCCOCCOCCOCCOCCOCCOCCOCCOCCOCCO)Cc1cc(C(C)(C)C)cc(c1OCCOCCOCCOCCOCCOCCOCCOCCOCCOCCOCCOCCO)Cc1cc(C(C)(C)C)cc(c1OCCOCCOCCOCCOCCOCCOCCOCCOCCOCCOCCOCCO)Cc1cc(C(C)(C)C)cc(c1OCCOCCOCCOCCOCCOCCOCCOCCOCCOCCOCCOCCO)Cc1cc(C(C)(C)C)cc(c1OCCOCCOCCOCCOCCOCCOCCOCCOCCOCCOCCOCCO)C2 |  |  |  |  |  |  |  |  |  | Activity [13]: 50 - 100% |
| CCCCCCCCC(CCC1CCCC1)C(=O)O (stereo unspecified) |  |  |  |  |  |  |  |  | 180 |  |
| O=C(N[C@H](CO)[C@H](O)c1ccc([N+](=O)[O-])cc1)C(Cl)Cl [CHLORAMPHENICOL] | 200 (≈ 619 µM) | 100 (≈ 309 µM) | 200 (≈ 619 µM) | 100 (≈ 309 µM) | 200 (≈ 619 µM) | 200 (≈ 619 µM) | 100 (≈ 309 µM) | 25 (≈ 77.4 µM) |  |  |
